Results on 1 compound are retold here after publication PMC8041276 (ACS Chemical Neuroscience, 2021).

For data set [1], the system named is scopolamine-induced cognitive impairment. Description: Novel object recognition (NOR) test under scopolamine-induced memory decline. The data set is classed as in vivo, male Sprague-Dawley rats. As to conditions: rats, scopolamine 1.25 mg/kg ip. As for the experimental part:
The experiments were conducted in accordance with the NIH Guide for the Care and Use of Laboratory Animals and were approved by the II Local Ethics Committee for Animal Experiments, Maj Institute of Pharmacology. Male […] Sprague-Dawley rats (Charles River, Germany) weighing ∼250 g at the arrival were housed in the standard laboratory cages, under standard colony A/C controlled conditions: room temperature 21 ± 2 °C, humidity (40–50%), 12 h light/dark cycle (lights on, 06:00) with ad libitum access to food (unless stated otherwise) and water. Rats were allowed to acclimatize for at least 7 days before the start of the experimental procedure. During this week animals were handled at least 3 times. Behavioral testing was carried out during the light phase of the light/dark cycle. […]
The procedure consisted of habituation to the arena (without any objects) for 5 min, 24 h before the test, and test session comprised two trials separated by an inter trial interval (ITI). […] Exploration time of the objects and the distance traveled were measured using the Any-maze video tracking system. On the basis of exploration time (E) of two objects during T2, discrimination index (DI) was calculated according to the formula: DI = (EB – EA)/(EA + […]).
Data were analyzed using one-way ANOVA with treatment as between-subject factor. […]

The test system of data set [2] is Salmonella typhimurium TA100. As to conditions: without S9 fraction. The protocol:
Ames microplate fluctuation protocol (MPF) assay was performed with Salmonella typhimurium strain TA100, enabling the detection base substitution mutations. Bacterial strain and exposure and indicator medium were purchased from Xenometrix AG (Allschwil, Switzerland). The mutagenic potential of tested structures was evaluated by incubation of bacteria, incapable of producing histidine, with particular concentration of test compounds for 90 min in exposure medium, containing limited amount of histidine. The occurrence of reversion events to histidine prototrophy was observed as a growth of bacteria in the indicator medium without histidine after 48 h of incubation in room temperature. Bacterial growth in 384-well plates was visualized by color change of medium from violet to yellow due to addition of pH indicator dye. Compound was classified as mutagenic, if the fold increase in number of positive wells over the medium control baseline was greater than 2.0. The solvent control baseline was defined as the mean number of positive wells in the negative control sample, increased by one standard deviation. 1% DMSO in media was used as a negative and 4-nitroquinoline N-oxide (NQNO) as positive control. The experiment was performed in triplicate. Fraction S9 was not added.

Another data set has as its target T1, CYP2D6 (Homo sapiens, UniProt P10635).
T1 construct: purchased Promega (Madison, WI, USA)
Description: CYP2D6 P450-Glo luminescent inhibition assay. Format: in vitro ADME. As to conditions: 0.01–25 μM. The source says: The luminescent CYP3A4 P450-Glo and CYP2D6 P450-Glo assays and protocols were provided by Promega (Madison, WI, USA). The P450-Glo systems based on the conversion proluciferins, derivatives of beetle luciferin [(4S)-4,5-dihydro-2-(6′-hydroxy-2′-benzothiazolyl)-4-thiazolecarboxylic acid] into D-luciferin were catalyzed by respective CYP isoform. D-Luciferin is formed and detected in a second reaction with the luciferin detection reagent (LDR). The amount of light produced in the second reaction is proportional to CYP activity.
The stock solutions (10 mM) of the references ketoconazole (KE), quinidine (QD), and examined compounds were performed in DMSO. The 4× concentrated dilutions were prepared before the assays. […]
The CYPs, proluciferin, and examined compounds (25 μL/well) were preincubated first for 5 min, and next the NADPH regeneration system was added (25 μL) to start the reaction. […] The control reactions for measuring the 100% of CYPs activity and minus-CYP negative control reactions for measure background luminescence were also prepared. […] Finally, LDR was added (50 μL/well), and after 20 min of incubation in room temperature the luminescence signal was measured with a microplate reader (EnSpire, PerkinElmer) in luminescence mode. […] The IC50 values and were calculated using GraphPad Prism 5 software.

T1 sequence (P10635 whole entry): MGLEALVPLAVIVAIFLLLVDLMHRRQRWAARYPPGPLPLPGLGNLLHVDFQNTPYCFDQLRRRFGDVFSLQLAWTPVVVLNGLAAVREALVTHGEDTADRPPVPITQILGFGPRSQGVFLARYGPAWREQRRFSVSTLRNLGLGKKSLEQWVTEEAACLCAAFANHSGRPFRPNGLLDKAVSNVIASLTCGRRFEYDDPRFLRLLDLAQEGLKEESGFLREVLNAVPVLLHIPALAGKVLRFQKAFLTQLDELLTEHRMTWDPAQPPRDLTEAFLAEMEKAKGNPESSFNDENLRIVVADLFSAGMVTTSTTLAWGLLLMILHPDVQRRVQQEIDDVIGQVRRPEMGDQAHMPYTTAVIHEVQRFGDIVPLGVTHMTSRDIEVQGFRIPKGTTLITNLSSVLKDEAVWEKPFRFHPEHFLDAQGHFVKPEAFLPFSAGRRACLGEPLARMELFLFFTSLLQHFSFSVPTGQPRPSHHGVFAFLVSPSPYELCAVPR

For the compound `O=C(N[C@@H]1CCNC1)c1ccn(S(=O)(=O)c2cccc(Cl)c2)c1-c1ccc(F)cc1` [Compound 27, (R)-2-(4-Fluorophenyl)-1-[(3-chlorophenyl)sulfonyl]-N-(pyrrolidin-3-yl)-1H-pyrrole-3-carboxamide], the “effect on scopolamine-induced cognitive deficits (discrimination index)” value was “not 3 mg/kg, prevented scopolamine-induced cognitive deficits” in data set [1] (3 mg/kg p.o.) and “prevented scopolamine-induced cognitive deficits” in data set [1] (6 mg/kg p.o.). In addition, in data set [2], the “mutagenicity (Ames test)” value is “non-mutagenic”. Also, the “influence on CYP2D6 activity” value on CYP2D6 was “did not significantly influence”.
